Data on five compounds can be found in patent US20260176320A1, “MODULATORS OF G-PROTEIN COUPLED RECEPTORS” (priority 2018, published 2026).

Molecules are shown by their SMILES. Where two headings read alike, the source gives them in different places. Square brackets hold non-standard residues; d marks the D form. Peptide text beside a SMILES is read from it. * marks the point of attachment. X1 = O=C(CSCC(=O)*)NCCN1C(=O)c2ccccc2C1=O; Aib = CC(C)(N)C(=O)O

Format in all cases: cell-based
Experiment [1] concerns the target T1, GLP-1R (Homo sapiens, UniProt P43220). Put plainly: HitHunter cAMP assay (GLP-1R). The settings on record: cAMP; for Emax: read-out: (Emax) GLP-1R. An outline of the steps: (§1)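 Agonist stimulation lasts 30 min at room temperature on 10,000 cells per well, with phosphodiesterase blocked by 625 μM IBMX. Accumulated cAMP is quantified by competitive antibody luminescence after overnight development.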
On the technique in general: cAMP levels reflect the balance of adenylyl cyclase and phosphodiesterase activity.

The target of experiment [2] is T1, GLP-1R. The experiment is described as follows: PathHunter β-arrestin assay. On the procedure: The effects of the chemical entities described herein on β-arrestin signaling and associated downstream processes (e.g., those delineated above) can be assessed using conventional methods, e.g., PathHunter β-arrestin Assay for determining β-arresting coupling (see Examples section). […] It has been shown that b-arrestin coupling is a key strep in receptor internalization and subsequent de-sensitization and attenuation of signaling.
5,000 cells were seeded in appropriate cell culture media per well in a low volume 384-well tissue culture plate. The assay plate was incubated with cells overnight at 37° C. and 5% CO2. The media was removed, and 5 μL of appropriate cell culture media containing 0.2% BSA was added. Agonist serial dilutions in a separate 384 well dilution plate in a 22-point series of 2× dilutions of agonist in DMSO were performed as follows. 80 μL of the highest concentration of Agonist/DMSO was added to well No. 1. 40 μL was removed from well No. 1, and added to well No. 2, followed by gentle mixing. […] This process was repeated until well No. 22. Additional serial dilutions for additional agonists were set up in a similar manner. 100 nL of each 2× agonist serial dilution was added in duplicate to the designated agonist rows of the assay plate using the Labcyte ECHO. Assay plate was incubated for 90 minutes at 37° C. and 5% CO2. A stock of Working Detection Solution in a separate 15 ml polypropylene tube was prepared by mixing 19 parts of Cell Assay Buffer, 5 parts of Substrate Reagent 1, 1 part Substrate Reagent 2. […] Plates were spun down briefly. Assay plate was incubated for 3 hour at room temperature in the dark for the immunocompetition reaction to occur. Samples were read on Tecan i-control plate reader using luminescence mode with 100 ms integration time. Data analysis was performed using GraphPad Prism.

Another experiment concerns the target T2, GIP-R (Homo sapiens, UniProt P48546).
T2 sequence (P48546 22-466): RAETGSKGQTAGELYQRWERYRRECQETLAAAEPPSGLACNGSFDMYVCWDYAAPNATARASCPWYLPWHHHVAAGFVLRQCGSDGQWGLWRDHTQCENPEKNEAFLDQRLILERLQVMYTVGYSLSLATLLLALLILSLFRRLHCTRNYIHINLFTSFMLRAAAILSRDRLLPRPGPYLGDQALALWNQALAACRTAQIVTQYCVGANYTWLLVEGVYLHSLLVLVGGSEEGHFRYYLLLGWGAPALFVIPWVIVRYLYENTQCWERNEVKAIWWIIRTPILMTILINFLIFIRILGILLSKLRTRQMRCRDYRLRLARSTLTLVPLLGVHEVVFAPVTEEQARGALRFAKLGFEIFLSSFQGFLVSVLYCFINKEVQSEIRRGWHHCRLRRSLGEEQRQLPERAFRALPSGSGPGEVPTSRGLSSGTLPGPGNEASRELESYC
The experiment is described as follows: HitHunter cAMP assay (GIP-R). The settings on record: cAMP; for Emax: read-out: (Emax) GIP-R. Summed up: as §1

The mark [3] stands for this setting: Table 3, read-out: EC50 GLP-1R/nM.
Setting [4] is: Table 3A, read-out: EC50 GLP-1R/nM.

T1 sequence (P43220 24-463): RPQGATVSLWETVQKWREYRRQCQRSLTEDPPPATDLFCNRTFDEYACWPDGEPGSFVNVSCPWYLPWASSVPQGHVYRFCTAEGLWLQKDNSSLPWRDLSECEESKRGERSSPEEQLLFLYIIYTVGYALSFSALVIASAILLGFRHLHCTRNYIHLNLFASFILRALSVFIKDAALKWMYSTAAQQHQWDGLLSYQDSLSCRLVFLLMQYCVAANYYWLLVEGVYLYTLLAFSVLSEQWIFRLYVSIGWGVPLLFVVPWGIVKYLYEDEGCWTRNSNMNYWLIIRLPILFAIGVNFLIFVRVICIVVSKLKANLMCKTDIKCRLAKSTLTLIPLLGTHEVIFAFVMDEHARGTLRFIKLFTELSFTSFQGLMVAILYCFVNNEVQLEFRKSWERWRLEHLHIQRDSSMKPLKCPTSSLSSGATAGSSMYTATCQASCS

`CCCCCCCCCCCCCCCC(=O)N[C@@H](CCC(=O)NCCCC[C@H](NC(=O)[C@H](CO)NC(=O)[C@@H]1CCCN1C(=O)[C@@H]1CCCN1C(=O)[C@@H]1CCCN1C(=O)[C@H](C)NC(=O)CNC(=O)[C@H](CO)NC(=O)[C@H](CO)NC(=O)[C@@H]1CCCN1C(=O)CNC(=O)CNC(=O)[C@H](C)NC(=O)[C@H](CC(C)C)NC(=O)[C@H](CC(C)C)NC(=O)[C@H](Cc1c[nH]c2ccccc12)NC(=O)[C@H](CC(N)=O)NC(=O)[C@@H](NC(=O)[C@H](Cc1ccccc1)NC(=O)[C@H](CCC(=O)O)NC(=O)C(C)(C)NC(=O)[C@H](C)NC(=O)[C@H](C)NC(=O)[C@H](CCC(N)=O)NC(=O)[C@H](CCCCN)NC(=O)[C@H](CC(=O)O)NC(=O)[C@H](CC(C)C)NC(=O)[C@H](Cc1ccc(O)cc1)NC(=O)[C@@H](NC(=O)[C@H](CO)NC(=O)[C@H](Cc1ccc(O)cc1)NC(=O)[C@H](CC(=O)O)NC(=O)[C@H](CO)NC(=O)[C@@H](NC(=O)[C@H](Cc1ccccc1)NC(=O)[C@@H](NC(=O)CNC(=O)[C@H](CCC(=O)O)NC(=O)CC(C)(C)NC(=O)CCN1CCCCC1=O)[C@@H](C)O)[C@@H](C)O)[C@@H](C)CC)C(C)C)C(N)=O)C(=O)O` [Compound 3]: the Emax on GLP-1R [1] (Table 3) and at GLP-1R [1] (Table 3A) was 96% each time. Moreover, the EC50 is 0.1 to 1 nM at GLP-1R [1] (setting [3]); 0.1 to 1 nM at GLP-1R [1] (setting [4]); above 1000 nM on GLP-1R [2] (PathHunter β-arrestin assay, read-out: β-arrestin activity EC50).

In turn, `CC[C@H](C)[C@H](NC(=O)[C@H](CO)NC(=O)[C@H](Cc1ccc(O)cc1)NC(=O)[C@H](CC(=O)O)NC(=O)[C@H](CO)NC(=O)[C@@H](NC(=O)[C@H](Cc1ccccc1)NC(=O)[C@@H](NC(=O)CNC(=O)[C@H](CCC(=O)O)NC(=O)CSCC(=O)NCCN1C(=O)c2ccccc2C1=O)[C@@H](C)O)[C@@H](C)O)C(=O)N[C@@H](Cc1ccc(O)cc1)C(=O)N[C@@H](CC(C)C)C(=O)N[C@@H](CC(=O)O)C(=O)N[C@@H](CCCCN)C(=O)N[C@@H](CCC(N)=O)C(=O)N[C@@H](C)C(=O)N[C@@H](C)C(=O)NC(C)(C)C(=O)N[C@@H](CCC(=O)O)C(=O)N[C@@H](Cc1ccccc1)C(=O)N[C@H](C(=O)N[C@@H](CCC(=O)O)C(=O)N[C@@H](Cc1c[nH]c2ccccc12)C(=O)N[C@@H](CC(C)C)C(=O)N[C@@H](CC(C)C)C(=O)N[C@@H](C)C(=O)NCC(=O)NCC(=O)N1CCC[C@H]1C(=O)N[C@@H](CO)C(=O)N[C@@H](CO)C(=O)NCC(=O)N[C@@H](C)C(=O)N1CCC[C@H]1C(=O)N1CCC[C@H]1C(=O)N1CCC[C@H]1C(=O)N[C@@H](CO)C(=O)N[C@@H](CCCCN)C(N)=O)C(C)C` [compound 149] (X1-EGTFTSDYSIYLDKQAA[Aib]EFVEWLLAGGPSSGAPPPSK-NH2) registered an EC50 on GLP-1R [2] above 1000 nM.

With `CCCCCCCCCCCCCCCC(=O)N[C@@H](CCC(=O)NCCCC[C@H](NC(=O)[C@H](CO)NC(=O)[C@@H]1CCCN1C(=O)[C@@H]1CCCN1C(=O)[C@@H]1CCCN1C(=O)[C@H](C)NC(=O)CNC(=O)[C@H](CO)NC(=O)[C@H](CO)NC(=O)[C@@H]1CCCN1C(=O)CNC(=O)CNC(=O)[C@H](C)NC(=O)[C@H](CC(C)C)NC(=O)[C@H](CC(C)C)NC(=O)[C@H](Cc1c[nH]c2ccccc12)NC(=O)[C@H](CC(N)=O)NC(=O)[C@@H](NC(=O)[C@H](Cc1ccccc1)NC(=O)[C@H](CCC(=O)O)NC(=O)C(C)(C)NC(=O)[C@H](C)NC(=O)[C@H](C)NC(=O)[C@H](CCC(N)=O)NC(=O)[C@H](CCCCN)NC(=O)[C@H](CC(=O)O)NC(=O)[C@H](CC(C)C)NC(=O)[C@H](Cc1ccc(O)cc1)NC(=O)[C@@H](NC(=O)[C@H](CO)NC(=O)[C@H](Cc1ccc(O)cc1)NC(=O)[C@H](CC(=O)O)NC(=O)[C@H](CO)NC(=O)[C@@H](NC(=O)[C@H](Cc1ccccc1)NC(=O)[C@@H](NC(=O)CNC(=O)[C@H](CCC(=O)O)NC(=O)CSCC(=O)NCCN1Cc2ccccc2CC1=O)[C@@H](C)O)[C@@H](C)O)[C@@H](C)CC)C(C)C)C(N)=O)C(=O)O` [Compound 270], the EC50 fell in the range of 1 to 10 nM on GLP-1R [1] (EC50 GLP-1R/nM, Table 3A) and 1 to 10 nM on GIP-R (EC50 GIP-R/nM, Table 3A). For the same compound, the Emax on GLP-1R [1] (Table 3A) and at GIP-R (Table 3A) was 90% throughout.

Turning to `CCCCCCCCCCCCCCCC(=O)N[C@@H](CCC(=O)NCCCC[C@H](NC(=O)[C@H](CO)NC(=O)[C@@H]1CCCN1C(=O)[C@@H]1CCCN1C(=O)[C@@H]1CCCN1C(=O)[C@H](C)NC(=O)CNC(=O)[C@H](CO)NC(=O)[C@H](CO)NC(=O)[C@@H]1CCCN1C(=O)CNC(=O)CNC(=O)[C@H](C)NC(=O)[C@H](CC(C)C)NC(=O)[C@H](CC(C)C)NC(=O)[C@H](Cc1c[nH]c2ccccc12)NC(=O)[C@H](CC(N)=O)NC(=O)[C@@H](NC(=O)[C@H](Cc1ccccc1)NC(=O)[C@H](CCC(=O)O)NC(=O)C(C)(C)NC(=O)[C@H](C)NC(=O)[C@H](C)NC(=O)[C@H](CCC(N)=O)NC(=O)[C@H](CCCCN)NC(=O)[C@H](CC(=O)O)NC(=O)[C@H](CC(C)C)NC(=O)[C@H](Cc1ccc(O)cc1)NC(=O)[C@@H](NC(=O)[C@H](CO)NC(=O)[C@H](Cc1ccc(O)cc1)NC(=O)[C@H](CC(=O)O)NC(=O)[C@H](CO)NC(=O)[C@@H](NC(=O)[C@H](Cc1ccccc1)NC(=O)[C@@H](NC(=O)CNC(=O)[C@H](CCC(=O)O)NC(=O)CSCC(=O)NCCN1C(=O)CC[C@H]1C)[C@@H](C)O)[C@@H](C)O)[C@@H](C)CC)C(C)C)C(N)=O)C(=O)O` (single isomer, unassigned) [Compound 74], the Emax (commonly the maximal effect, on the per cent scale that the assay sets) is 92% on GLP-1R [1] (Table 3), 92% at GLP-1R [1] (Table 3A), 47% at GIP-R (Table 3) and 47% on GIP-R (Table 3A).

As to `CCCCCCCCCCCCCCCC(=O)N[C@@H](CCC(=O)NCCCC[C@H](NC(=O)[C@H](CO)NC(=O)[C@@H]1CCCN1C(=O)[C@@H]1CCCN1C(=O)[C@@H]1CCCN1C(=O)[C@H](C)NC(=O)CNC(=O)[C@H](CO)NC(=O)[C@H](CO)NC(=O)[C@@H]1CCCN1C(=O)CNC(=O)CNC(=O)[C@H](C)NC(=O)[C@H](CC(C)C)NC(=O)[C@H](CC(C)C)NC(=O)[C@H](Cc1c[nH]c2ccccc12)NC(=O)[C@H](CC(N)=O)NC(=O)[C@@H](NC(=O)[C@H](Cc1ccccc1)NC(=O)[C@H](CCC(=O)O)NC(=O)C(C)(C)NC(=O)[C@H](C)NC(=O)[C@H](C)NC(=O)[C@H](CCC(N)=O)NC(=O)[C@H](CCCCN)NC(=O)[C@H](CC(=O)O)NC(=O)[C@](C)(CC(C)C)NC(=O)[C@H](Cc1ccc(O)cc1)NC(=O)[C@@H](NC(=O)[C@H](CO)NC(=O)[C@H](Cc1ccc(O)cc1)NC(=O)[C@H](CC(=O)O)NC(=O)[C@H](CO)NC(=O)[C@@H](NC(=O)[C@H](Cc1ccccc1)NC(=O)[C@@H](NC(=O)CNC(=O)[C@H](CCC(=O)O)NC(=O)CSCC(=O)NCCN1C(=O)CSC1=O)[C@@H](C)O)[C@@H](C)O)[C@@H](C)CC)C(C)C)C(N)=O)C(=O)O` [Compound 70], the Emax came out at 102% on GLP-1R [1] (Table 3), 102% at GLP-1R [1] (Table 3A), 86% at GIP-R (Table 3) and 86% on GIP-R (Table 3A). In addition, the EC50 on GLP-1R [1] (setting [3]) was in the range of 0.1 to 1 nM; on GLP-1R [1] (setting [4]), 0.1 to 1 nM; at GIP-R (Table 3, read-out: EC50 GIP-R/nM), 1 to 10 nM; on GIP-R (Table 3A, read-out: EC50 GIP-R/nM) it was 1 to 10 nM.
